Literature values in US6348193B1, “Method for inhibiting pathogenic fungi and bacteria in plants using Pseudomonas aureofaciens” (Board of Trustees of Michigan State University, priority 1999, dated 2002).

Tests used:
G. graminis var. tritici = conditions: in the soil atmosphere
Magnaporthe poae = conditions: in vivo

Compound | Concentration inhibitory to G. graminis var. tritici (G. graminis var. tritici) | Management of summer patch disease of turfgrass (Magnaporthe poae)
C=C [Ethylene, ethylene] | less than 5 parts-per-million | 
faeriefungin |  | equal to that of the chemical fungicide fenarimol
